This note sets out measurements from patent US20260217708A1, “FUSED BENZAZEPINE DERIVATIVES FOR USE IN THE TREATMENT OF CANCER AND EPILEPSY” (UCB BIOPHARMA SRL, priority 2023, published 2026).

A value given as a limit tells only on which side of the number the result lay.

Test [1] has as its target T1, system Xc^− (Homo sapiens, UniProt Q9UPY5).
T1 sequence (Q9UPY5 1-501): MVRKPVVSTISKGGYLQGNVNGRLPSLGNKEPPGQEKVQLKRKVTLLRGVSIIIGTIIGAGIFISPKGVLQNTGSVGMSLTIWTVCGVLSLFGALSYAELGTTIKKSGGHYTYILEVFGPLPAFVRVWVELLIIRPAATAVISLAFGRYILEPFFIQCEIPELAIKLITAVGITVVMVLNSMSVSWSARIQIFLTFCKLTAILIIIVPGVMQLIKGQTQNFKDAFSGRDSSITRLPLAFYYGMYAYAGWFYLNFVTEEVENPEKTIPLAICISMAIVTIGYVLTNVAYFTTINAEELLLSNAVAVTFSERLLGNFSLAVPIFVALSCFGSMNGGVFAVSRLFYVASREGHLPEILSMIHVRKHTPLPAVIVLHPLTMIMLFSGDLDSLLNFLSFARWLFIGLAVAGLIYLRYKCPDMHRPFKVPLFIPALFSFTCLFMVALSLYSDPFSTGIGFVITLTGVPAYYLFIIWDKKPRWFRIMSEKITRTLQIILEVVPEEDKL
T1 sequence (P08195 1-529 partner): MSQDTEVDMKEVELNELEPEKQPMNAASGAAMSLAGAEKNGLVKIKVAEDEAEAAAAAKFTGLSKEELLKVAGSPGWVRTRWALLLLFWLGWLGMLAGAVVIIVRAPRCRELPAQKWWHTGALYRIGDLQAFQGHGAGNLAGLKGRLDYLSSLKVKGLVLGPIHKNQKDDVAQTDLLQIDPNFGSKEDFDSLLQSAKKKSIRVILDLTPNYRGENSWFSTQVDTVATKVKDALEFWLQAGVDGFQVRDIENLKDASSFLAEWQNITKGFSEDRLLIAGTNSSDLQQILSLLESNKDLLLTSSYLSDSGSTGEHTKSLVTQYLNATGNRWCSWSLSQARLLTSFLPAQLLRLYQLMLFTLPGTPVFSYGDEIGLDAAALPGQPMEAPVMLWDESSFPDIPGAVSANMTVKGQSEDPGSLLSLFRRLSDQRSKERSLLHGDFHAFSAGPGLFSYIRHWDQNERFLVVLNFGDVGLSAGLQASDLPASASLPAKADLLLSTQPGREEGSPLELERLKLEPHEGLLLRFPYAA
The experiment in a line: [^14C]L-Cystine uptake assay. The format is cell-based. The arrangement: endogenous in cells; host or cells: H4 cells. The settings on record: H4 cells, sodium-free HEPES buffer, 0.5 μM L-[14C]Cystine and 4.5 μM L-Cystine, 1 hour at 37° C.; read-out: pIC50 [^14C] L-Cystine uptake assay (converted). Summed up:
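Compound effect is given as pIC50, taken between controls of 1% DMSO and 50 μM Erastin. Human H4 cells were pretreated 15 min with compound in sodium-free buffer, then took up 0.5 μM [14C]cystine with 4.5 μM cold cystine for 1 hour at 37° C, read by scintillation proximity counting.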

For test [2], the target named is T1, system Xc^−. The experiment in a line: Cystine-induced glutamate release assay. The format is cell-based. Set-up: endogenous in cells; host or cells: H4 cells. The settings on record: H4 cells, sodium-free HEPES buffer, 50 μM L-Cystine, 2 hours, Amplex Red glutamate readout; read-out: pIC50 Cystine-induced glutamate release assay (converted). Summed up: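 IC50 (reported as pIC50) normalized to DMSO 1% and Erastin 50 μM controls, from Amplex Red fluorescence of glutamate exported into supernatant. H4 cells were washed into sodium-free buffer to exclude EAAT transport, then given compound with 50 μM L-cystine for 2 h in the incubator.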

Consider `CC1C(=O)N(CC(=O)Nc2ccc(C(F)(F)F)cc2)c2cc(F)c(=O)n(C)c2-c2cccnc21` (centres unmarked) [#185, 2-(5-fluoro-3,10-dimethyl-4,9-dioxo-3,8,12-triazatricyclo[9.4.0.0^2,7]pentadeca-1(11),2(7),5,12,14-pentaen-8-yl)-N-[4-(trifluoromethyl)phenyl]acetamide], for which the IC50 on system Xc^− [1] and at system Xc^− [2] was 39.8 to 100 nM throughout.
Regarding `COc1nc(F)cc2c1-c1cccnc1CC(=O)N2CC(=O)Nc1ccc(C(F)(F)F)cc1` [#113, 2-(5-fluoro-3-methoxy-9-oxo-4,8,12-triazatricyclo[9.4.0.0^2,7]pentadeca-1(11),2,4,6,12,14-hexaen-8-yl)-N-[4-(trifluoromethyl)phenyl]acetamide], the IC50 was less than 15.8 nM at system Xc^− [1] and 39.8 to 100 nM on system Xc^− [2].
On the same counts, the results for `CC1C(=O)N(CC(=O)Nc2ccc(C(F)F)cc2)c2cc(C3(F)CC3)ncc2-c2cc(F)cnc21` (single isomer, unassigned) [#325, N-[4-(difluoromethyl)phenyl]-2-[14-fluoro-5-(1-fluorocyclopropyl)-10-methyl-9-oxo-4,8,12-triazatricyclo[9.4.0.0^2,7]pentadeca-1(11),2,4,6,12,14-hexaen-8-yl]acetamide] are less than 15.8 nM and 15.8 to 39.8 nM.
For the compound `Cc1cc2c(c(C#N)n1)-c1ncccc1CC(=O)N2CC(=O)Nc1ccc(C(F)(F)F)cc1` [#392, 2-(15-cyano-13-methyl-9-oxo-3,10,14-triazatricyclo[9.4.0.0^2,7]pentadeca-1(11),2,4,6,12,14-hexaen-10-yl)-N-[4-(trifluoromethyl)phenyl]acetamide], the IC50 is 15.8 to 39.8 nM on system Xc^− [1] and 39.8 to 100 nM at system Xc^− [2].
Taken in the same sequence, the figures for `COc1nc(C)cc2c1-c1cccnc1CC(=O)N2CC(=O)Nc1ccc(C(F)(F)F)nc1` [#79, 2-(3-methoxy-5-methyl-9-oxo-4,8,12-triazatri-cyclo[9.4.0.0^2,7]penta-deca-1(11),2,4,6,12,14-hexaen-8-yl)-N-[6-(tri-fluoromethyl)-3-pyridyl] acetamide] were 100 to 501 nM and 100 to 501 nM.
For the compound `Cc1cc2c(c(F)n1)-c1cccnc1[C@@H](C)C(=O)N2CC(=O)Nc1ccc(F)cc1` [#233, 2-[(10R)-3-fluoro-5,10-dimethyl-9-oxo-4,8,12-triazatricyclo[9.4.0.0^2,7]pentadeca-1(15),2,4,6,11,13-hexaen-8-yl]-N-(4-fluorophenyl)acetamide], the IC50 at system Xc^− [1] was 15.8 to 39.8 nM; on system Xc^− [2], 39.8 to 100 nM.
On the same counts, the results for `COc1cc2c(c(C)n1)-c1cccnc1C(C)C(=O)N2CC(=O)Nc1ccc(Cl)c(F)c1` (single isomer, unassigned) [#300, N-(4-chloro-3-fluoro-phenyl)-2-[5-methoxy-3,10-dimethyl-9-oxo-4,8,12-triazatricyclo[9.4.0.0^2,7]pentadeca-1(15),2(7),3,5,11,13-hexaen-8-yl]acetamide] are less than 15.8 nM and less than 15.8 nM.
For `CC1C(=O)N(CC(=O)Nc2ccc(C(F)F)cc2)c2cc(C3CC3)nc(Cl)c2-c2cccnc21` (centres unmarked) [#347, 2-(3-chloro-5-cyclopropyl-10-methyl-9-oxo-4,8,12-triazatricyclo[9.4.0.0^2,7]pentadeca-1(15),2,4,6,11,13-hexaen-8-yl)-N-[4-(difluoromethyl)phenyl]acetamide], the IC50 was 15.8 to 39.8 nM at system Xc^− [1] and 39.8 to 100 nM on system Xc^− [2].
On the same counts, the results for `CC1C(=O)N(CC(=O)Nc2ccc(C(F)F)cc2)c2cc(N3CCOCC3)nc(F)c2-c2cccnc21` (centres unmarked) [#271, N-[4-(difluoromethyl)phenyl]-2-(3-fluoro-10-methyl-5-morpholino-9-oxo-4.8,12-triazatricyclo[9.4.0.0^2,7]pentadeca-1(15),2,4,6,11,13-hexaen-8-yl)acetamide] are less than 15.8 nM and 15.8 to 39.8 nM.
Taken in the same sequence, the figures for `Cc1cc2c(c(Cl)n1)-c1cccnc1C(C)C(=O)N2CC(=O)Nc1ccc(Br)cc1F` (single isomer, unassigned) [#227, Enantiomer (10S) or (10R) of N-(4-bromo-2-fluoro-phenyl)-2-[3-chloro-5,10-dimethyl-9-oxo-4,8,12-triazatricyclo[9.4.0.0^2,7]pentadeca-1(11),2(7),3,5,12,14-hexaen-8-yl]acetamide] were 15.8 to 39.8 nM and less than 15.8 nM.
Taken in the same sequence, the figures for `CCn1c2c(cc(C)c1=O)N(CC(=O)Nc1ccc(Cl)c(F)c1)C(=O)C(C)c1ccccc1-2` (centres unmarked) [#349, N-(4-chloro-3-fluoro-phenyl)-2-(1-ethyl-3,7-dimethyl-2,6-dioxo-7H-pyrido[3,2-d][3]benzazepin-5-yl)acetamide] were less than 15.8 nM and 15.8 to 39.8 nM.
For the compound `Cc1cc2c(c(F)n1)-c1cccnc1C(C)C(=O)N2CC(=O)Nc1ccc(OC(F)F)c(F)c1` (centres unmarked) [#136, N-[4-(difluoromethoxy)-3-fluoro-phenyl]-2-(3-fluoro-5,10-dimethyl-9-oxo-4,8,12-triazatricyclo[9.4.0.0^2,7]pentadeca-1(11),2(7),3,5,12,14-hexaen-8-yl)acetamide], the values for the IC50 on system Xc^− [1] and on system Xc^− [2] were 15.8 to 39.8 nM and 100 to 501 nM, respectively.
On the same counts, the results for `Cc1cc2c(c(F)n1)-c1cccnc1[C@@H](C)C(=O)N2CC(=O)Nc1ccc(C2(F)CC2)cc1` [#246, N-[4-(1-fluorocyclopropyl)phenyl]-2-[(10R)-3-fluoro-5,10-dimethyl-9-oxo-4,8,12-triazatricyclo[9.4.0.0^2,7]pentadeca-1(11),2(7),3,5,12,14-hexaen-8-yl]acetamide] are less than 15.8 nM and less than 15.8 nM.
On the same counts, the results for `Cc1cc2c(c(C)n1)-c1cccc(F)c1CC(=O)N2CC(=O)Nc1ccc(C(F)(F)F)cc1` [#64, 2-(8-fluoro-1,3-dimeth-yl-6-oxo-7H-pyrido [4,3-d][3]benzazepin-5-yl)-N-[4-(trifluorometh-yl)phenyl]acetamide] are less than 15.8 nM and 15.8 to 39.8 nM.
On the same counts, the results for `Cc1cc2c(c(F)n1)-c1cc(F)cnc1[C@H](C)C(=O)N2CC(=O)Nc1ccc(Cl)c(F)c1` (single isomer, unassigned) [#260] are less than 15.8 nM and less than 15.8 nM.
As to `Cc1cc2c(c(Cl)n1)-c1cccnc1C(C)C(=O)N2CC(=O)Nc1ccc(C(F)(F)F)cc1` (centres unmarked) [#114, 2-(3-chloro-5,10-dimethyl-9-oxo-4,8,12-triazatricyclo[9.4.0.0^2,7]pentadeca-1(11),2,4,6,12,14-hexaen-8-yl)-N-[4-(trifluoromethyl)phenyl]acetamide], the figures for the IC50 on system Xc^− [1] and on system Xc^− [2] were less than 15.8 nM and 15.8 to 39.8 nM, respectively.
On the same counts, the results for `Cc1cc2c(c(F)n1)-c1c(F)cccc1CC(=O)N2CC(=O)Nc1ccc(C(F)(F)F)cc1` [#87, 2-(1,11-difluoro-3-methyl-6-oxo-7H-pyrido[4,3-d][3]benzazepin-5-yl)-N-[4-(trifluoromethyl)phenyl]acetamide] are 39.8 to 100 nM and 100 to 501 nM.
With `Cc1cc2c(cc1C)-n1ccnc1CC(=O)N2CC(=O)Nc1ccc(C(F)(F)F)cc1` [#8, 2-(8,9-dimethyl-5-oxo-4H-imidazo[1,2-a][1,5]benzodiazepin-6-yl)-N-[4-(trifluoromethyl)phenyl]acetamide], the IC50 at system Xc^− [1] is 39.8 to 100 nM; at system Xc^− [2] it was 100 to 501 nM.
`Cc1cc2c(n(C)c1=O)-c1cccnc1[C@@H](C)C(=O)N2CC(=O)Nc1ccc(C(F)(F)F)cc1` (single isomer, unassigned) [#208, Enantiomer (10S) or (10R) of N-[4-(trifluoromethyl)phenyl]-2-[3,5,10-trimethyl-4,9-dioxo-3,8,12-triazatricyclo[9.4.0.0^2,7]pentadeca-1(11),2(7),5,12,14-pentaen-8-yl]acetamide]: the IC50 on system Xc^− [1] and on system Xc^− [2] was less than 15.8 nM throughout.
